Assays:
[1] = Plasma cholesterol and triglyceride in two men with hyperlipidemia; assay type: in vivo, human; details: 10 mg/kg daily oral capsule, 60 days
Method: Two men in their mid-fifties, suffered by hyperlipidemia with blood cholesterol level ranging from 230 to 270 mg/dl and blood triglyceride level ranging from 200 to 220 mg/dl, were administered with a daily oral dose of 10 mg/kg of 4-hydroxycinnamic acid in the form of a capsule for 60 days. The plasma cholesterol and triglyceride contents were determined before and after the administration.

main artery = assay: Analysis for fatty streak in the main artery of rabbits; assay type: in vivo, rabbit (New Zealand White); details: for macrophage-lipid complex on the arterial endothelium: FIGS. 1A-1E, control: a thick layer; for Fatty streak: proportion of total arterial area, Oil Red O, rabbits, 8 weeks, Control 80 ± 8
Method: Cinnamic acid derivatives were purchased from Sigma Chemical Co. (St. Louis, Mo.). The rabbits were fed for 8 weeks while being allowed free access to the diets and water. The chest of each of the rabbits sacrificed in Step 2 was incised. […] The main artery was incised in the middle along the longitudinal axis and pinned to a dish. The moist artery was photographed and, then, the staining of fatty streaks was carried out in accordance with the method of […]., et al. (J. Lab. Clin. Med., 121, 103-110(1993)) as follows. A part of the incised main artery was washed three times with anhydrous propylene glycol for 2 min. and stained for 30 min. with a saturated solution of Oil Red O (ORO, Sigma Co.) dissolved in propylene glycol. Thereafter, the artery was washed twice with 85% propylene glycol for 3 min. to remove remaining staining solution and, then washed with physiological saline. The artery was photographed and the photograph was traced. The area of stained region (fatty streak region) was determined with an image analyzer (LEICA, Q-600, Germany) and its proportion (%) to the total arterial area was calculated.

ACAT = biological target: T1, ACAT (Rattus norvegicus, UniProt Q7TQM4); assay: ACAT assay, liver microsomes of the fed rats; assay type: biochemical; details: liver microsomes of rats fed 0.1% in 1% cholesterol diet; Control 0
T1 construct: microsomes were separated from liver tissues to be used as an enzyme source; from tissue; host or cells: rat liver microsomes
T1 sequence (Q7TQM4 1-524): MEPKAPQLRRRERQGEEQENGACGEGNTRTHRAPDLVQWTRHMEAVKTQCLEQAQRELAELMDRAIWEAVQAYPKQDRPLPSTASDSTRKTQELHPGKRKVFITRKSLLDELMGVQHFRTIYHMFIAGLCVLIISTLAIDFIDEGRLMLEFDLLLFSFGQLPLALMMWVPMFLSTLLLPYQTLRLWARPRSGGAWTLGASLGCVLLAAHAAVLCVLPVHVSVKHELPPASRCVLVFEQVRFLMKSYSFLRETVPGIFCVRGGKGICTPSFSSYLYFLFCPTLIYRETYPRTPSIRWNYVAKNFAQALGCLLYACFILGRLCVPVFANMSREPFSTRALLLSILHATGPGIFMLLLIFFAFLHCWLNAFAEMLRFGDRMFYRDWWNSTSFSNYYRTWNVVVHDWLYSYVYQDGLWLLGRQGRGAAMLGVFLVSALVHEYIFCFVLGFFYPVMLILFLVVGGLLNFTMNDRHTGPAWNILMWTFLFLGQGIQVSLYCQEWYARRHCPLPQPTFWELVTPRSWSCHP
Method: To determine the effect of feeding cinnamic acid derivatives to rats on the activity of ACAT, microsomes were separated from liver tissues to be used as an enzyme source.
1 g each of the livers taken from each group of rats of Example 2 was homogenized in 5 ml of homogenization medium (0.1 M KH2 PO4, pH 7.4, 0.1 mM EDTA and 10 mM β-mercaptoethanol). The homogenate was centrifuged at 3,000×g for 15 min. at 4° C. and the supernatant thus obtained was centrifuged at 15,000×g for 15 min. at 4° C. to obtain a supernatant. The supernatant was put into an ultracentrifuge tube (Beckman) and centrifuged at 100,000×g for 1 hour at 4° C. to obtain microsomal pellets, which were then suspended in 3 ml of the homogenization medium and centrifuged at 100,000×g for 1 hour at 4° C. The pellets thus obtained were suspended in 1 ml of the homogenization medium. The protein concentration of the resulting suspension was determined by Lowry's method and then adjusted to 4 to 8 mg/ml. The resulting suspension was stored in a deep freezer (Biofreezer, Forma Scientific Inc.).
6.67 μl of 1 mg/ml cholesterol solution in acetone was mixed with 6 μl of 10% Triton WR-1339 (Sigma Co.) in acetone and, then, acetone was removed from the mixture by evaporation under a nitrogen flow. Distilled water was added to the resulting mixture to adjust the concentration of cholesterol to […].
Added to 10 μl of the resulting aqueous cholesterol solution were 10 μl of 1 M KH2 PO4 (pH 7.4), 5 μl of 0.6 mM bovine serum albumin (BSA), 10 μl of microsome solution obtained in (Step 1) and 55 μl of distilled water (total 90 μl). The mixture was pre-incubated in a water bath at 37° C. for 30 min. […]
200 μl of the resulting supernatant was put in a scintillation bottle and 4 ml of scintillation fluid (Lumac) was added thereto. The mixture was assayed for radioactivity with 1450 Microbeta liquid scintillation counter (Wallacoy, Finland). ACAT activity was calculated as picomoles of cholesteryl oleate synthesized per min. per mg protein (pmoles/min/mg protein).

[2] = Acute oral toxicity in ICR mice; assay type: in vivo, mouse
Method: 12 seven-week-old, specific pathogen-free ICR […] mice, six female mice each weighing about 25 to 29 g and six male mice each weighing about 34 to 38 g, were kept under an environment of 22±1° C., 55±5% relative humidity and 12L/12D photoperiod. Fodder (Cheiljedang Co., mouse and rat fodder) and water were sterilized and fed to the mice.
4-hydroxycinnamic acid purchased from Aldrich-Sigma Chemical Co. (St. Louis, Mo., U.S.A) was dissolved in 0.5% Tween 80 to a concentration of 100 mg/ml, and the solution was orally administered to the mice in an amount of 0.2 ml per 20 g of mouse body weight. […] Further, on the 10th day, the mice were sacrificed and the internal organs were visually examined.

SMILES | reduction of plasma cholesterol content [1] | reduction of plasma triglyceride content [1] | macrophage-lipid complex on the arterial endothelium (main artery) | Fatty streak (main artery) | Inhibition on ACAT activity (ACAT) | autopsy, internal organs ([2]; oral 1,000 mg/kg, 10th day) | weight changes ([2]; oral 1,000 mg/kg, 10 day test period) | survival ([2]; oral 1,000 mg/kg, day 10) | toxicity ([2]; single oral dose 1,000 mg/kg, mice, 10 days)
O=C(O)/C=C/c1ccc(O)cc1 [4-Hydroxycinnamic acid, 4-hydroxycinnamic acid] | 25% | 20% | no or very thin layers of macrophage-lipid complex | 24 ± 11% | 17% | had not developed any pathological abnormality | no weight loss was observed | All the mice were alive | showed no toxicity
O=C(O)CCc1ccc(O)c(O)c1 [3,4-dihydroxyhydrocinnamic acid] | – | – | no or very thin layers of macrophage-lipid complex | 16 ± 1% | 20% | – | – | – | –
O=C(O)/C=C/c1ccc(O)c(O)c1 [3,4-dihydroxycinnamic acid] | – | – | no or very thin layers of macrophage-lipid complex | 13 ± 5% | 7% | – | – | – | –
